From PubChem BioAssay AID1845207 (Molecular Pharmacology Branch, DTP, NCI, 2023)
Values joined by “and” are separate entries in the source; they are usually repeats but may differ in a detail not shown here. Equal values may be shown once.

Tested on: NCI-H1876 tumor spheroid viability
Experiment: Anticancer human tumor NCI-H1876 cell line growth inhibition;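 also: spheroids exposed to compounds for seven days before the viability read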;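 as to viability, T/C: percent of DMSO vehicle control viability so 100% = vehicle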
Conditions: spheroids with HUVEC and MSC; for viability, T/C: stronger effect = lower value; active = viability on the fitted dose curve at most 10% of control; inactive = the rest
In short: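 Complex spheroids of malignant cells with endothelial cells and mesenchymal stem cells; agents alone or combined, from near clinical Cmax (or 10 microM if unknown) down in half-log steps, 0.25% DMSO final.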

[1] = curve of first compound, second compound 1 µM
[2] = curve of first compound, second compound 3.16 µM
[3] = curve of first compound, second compound 10 µM
[4] = curve of first compound, second compound 31.6 µM
[5] = curve of first compound, second compound 100 µM

CC1COCCN1c1cc(-c2ccnn2C)c2ccnc(-c3ccn[nH]3)c2n1 (centres undefined) + Cn1nnc2c(C(N)=O)ncn2c1=O
inactive: viability, T/C (second compound 1 µM, first compound 0.0316 µM) 57% | viability, T/C (second compound 1 µM, first compound 0.1 µM) 42.4% | viability, T/C (second compound 1 µM, first compound 0.316 µM) 30.1% | viability, T/C (second compound 1 µM, first compound 1 µM) 20.7% | viability, T/C (second compound 1 µM, first compound 3.16 µM) 11.2% | viability, T/C (second compound 3.16 µM, first compound 0.0316 µM) 57.7% | viability, T/C (second compound 3.16 µM, first compound 0.1 µM) 41.3% | viability, T/C (second compound 3.16 µM, first compound 0.316 µM) 30.1% | viability, T/C (second compound 3.16 µM, first compound 1 µM) 19.4% | viability, T/C (second compound 3.16 µM, first compound 3.16 µM) 12.5% | viability, T/C (second compound 10 µM, first compound 0.0316 µM) 53% | viability, T/C (second compound 10 µM, first compound 0.1 µM) 49.1% | viability, T/C (second compound 10 µM, first compound 0.316 µM) 30.1% | viability, T/C (second compound 10 µM, first compound 1 µM) 20% | viability, T/C (second compound 10 µM, first compound 3.16 µM) 11% | viability, T/C (second compound 31.6 µM, first compound 0.0316 µM) 51.5% | viability, T/C (second compound 31.6 µM, first compound 0.1 µM) 35.6% | viability, T/C (second compound 31.6 µM, first compound 0.316 µM) 29.5% | viability, T/C (second compound 31.6 µM, first compound 1 µM) 17.2% | viability, T/C (second compound 31.6 µM, first compound 3.16 µM) 10.8% | viability, T/C (second compound 100 µM, first compound 0.0316 µM) 32.2% | viability, T/C (second compound 100 µM, first compound 0.1 µM) 24% | viability, T/C (second compound 100 µM, first compound 0.316 µM) 18.8% | viability, T/C (second compound 100 µM, first compound 1 µM) 11.7% | viability, T/C (second compound 100 µM, first compound 3.16 µM) 28.5% | viability, T/C (second compound 100 µM, first compound 10 µM) 6.09%
< 31.6 nM: IC50 [5]
55.4 nM: IC50 [1]
active: viability, T/C (second compound 1 µM, first compound 10 µM) 6.47% | viability, T/C (second compound 3.16 µM, first compound 10 µM) 6.71% | viability, T/C (second compound 10 µM, first compound 10 µM) 7.84% | viability, T/C (second compound 31.6 µM, first compound 10 µM) 7.29%
59.8 nM: IC50 [3]
54.5 nM: IC50 [2]
33.6 nM: IC50 [4]

Cn1nnc2c(C(N)=O)ncn2c1=O
> 100000 nM and 19100 nM and 92000 nM: IC50 (compound alone, run of 11/07/2019)
inactive: viability, T/C (compound 1 µM) 95% [middle of 10 runs] | viability, T/C (compound 3.16 µM) 103% [middle of 10 runs] | viability, T/C (compound 10 µM) 99.7% [middle of 10 runs]

Cc1sc2c(c1C)C(c1ccc(Cl)cc1)=NC(CC(=O)Nc1ccc(O)cc1)c1nnc(C)n1-2 (centres undefined) + Cn1nnc2c(C(N)=O)ncn2c1=O
inactive: viability, T/C (second compound 1 µM, first compound 0.00949 µM) 85.6% | viability, T/C (second compound 1 µM, first compound 0.03 µM) 56% | viability, T/C (second compound 1 µM, first compound 0.0949 µM) 45% | viability, T/C (second compound 1 µM, first compound 0.3 µM) 27% | viability, T/C (second compound 1 µM, first compound 0.949 µM) 15.7% | viability, T/C (second compound 3.16 µM, first compound 0.00949 µM) 84% | viability, T/C (second compound 3.16 µM, first compound 0.03 µM) 75.2% | viability, T/C (second compound 3.16 µM, first compound 0.0949 µM) 54.2% | viability, T/C (second compound 3.16 µM, first compound 0.3 µM) 50.6% | viability, T/C (second compound 3.16 µM, first compound 0.949 µM) 15.3% | viability, T/C (second compound 10 µM, first compound 0.00949 µM) 87.3% | viability, T/C (second compound 10 µM, first compound 0.03 µM) 62.2% | viability, T/C (second compound 10 µM, first compound 0.0949 µM) 55.1% | viability, T/C (second compound 10 µM, first compound 0.3 µM) 31% | viability, T/C (second compound 10 µM, first compound 0.949 µM) 15.1% | viability, T/C (second compound 31.6 µM, first compound 0.00949 µM) 87.3% | viability, T/C (second compound 31.6 µM, first compound 0.03 µM) 75.6% | viability, T/C (second compound 31.6 µM, first compound 0.0949 µM) 39.4% | viability, T/C (second compound 31.6 µM, first compound 0.3 µM) 25.6% | viability, T/C (second compound 31.6 µM, first compound 0.949 µM) 13.2% | viability, T/C (second compound 31.6 µM, first compound 3 µM) 8.31% | viability, T/C (second compound 100 µM, first compound 0.00949 µM) 63.4% | viability, T/C (second compound 100 µM, first compound 0.03 µM) 44.6% | viability, T/C (second compound 100 µM, first compound 0.0949 µM) 34.2% | viability, T/C (second compound 100 µM, first compound 0.3 µM) 19.6% | viability, T/C (second compound 100 µM, first compound 0.949 µM) 9.06%
89.4 nM: IC50 [3]
55.8 nM: IC50 [1]
23.5 nM: IC50 [5]
active: viability, T/C (second compound 1 µM, first compound 3 µM) 8.48% | viability, T/C (second compound 3.16 µM, first compound 3 µM) 10.5% | viability, T/C (second compound 10 µM, first compound 3 µM) 9% | viability, T/C (second compound 100 µM, first compound 3 µM) 4.09%
73.7 nM: IC50 [4]
176 nM: IC50 [2]
